# Source: patent publication US20230265116A1, “DEGRADATION OF (EGFR) BY CONJUGATION OF EGFR INHIBITORS WITH E3 LIGASE LIGAND AND METHODS OF USE” (BEIGENE, LTD., priority 2020, published 2023)
# Structures can show the parent of a compound that is named as a salt.
# Legend:
# [1] = biological target: T1, EGFR L858R/T790M (H1975-clone #36, homozygous) (Homo sapiens, UniProt P00533, L858R/T790M); assay: EGFR degradation HTRF assay, H1975-clone #36 cells; assay type: cell-based; settings: H1975 #36, 16h treatment; for Dmax: NCI-H1975, maximum percentage of degradation
# T1 construct: designed to specifically target WT EGFR but preserve the L858R/T790M copy; host or cells: H1975-clone #36
# T1 sequence (P00533 25-1210 T790M/L858R): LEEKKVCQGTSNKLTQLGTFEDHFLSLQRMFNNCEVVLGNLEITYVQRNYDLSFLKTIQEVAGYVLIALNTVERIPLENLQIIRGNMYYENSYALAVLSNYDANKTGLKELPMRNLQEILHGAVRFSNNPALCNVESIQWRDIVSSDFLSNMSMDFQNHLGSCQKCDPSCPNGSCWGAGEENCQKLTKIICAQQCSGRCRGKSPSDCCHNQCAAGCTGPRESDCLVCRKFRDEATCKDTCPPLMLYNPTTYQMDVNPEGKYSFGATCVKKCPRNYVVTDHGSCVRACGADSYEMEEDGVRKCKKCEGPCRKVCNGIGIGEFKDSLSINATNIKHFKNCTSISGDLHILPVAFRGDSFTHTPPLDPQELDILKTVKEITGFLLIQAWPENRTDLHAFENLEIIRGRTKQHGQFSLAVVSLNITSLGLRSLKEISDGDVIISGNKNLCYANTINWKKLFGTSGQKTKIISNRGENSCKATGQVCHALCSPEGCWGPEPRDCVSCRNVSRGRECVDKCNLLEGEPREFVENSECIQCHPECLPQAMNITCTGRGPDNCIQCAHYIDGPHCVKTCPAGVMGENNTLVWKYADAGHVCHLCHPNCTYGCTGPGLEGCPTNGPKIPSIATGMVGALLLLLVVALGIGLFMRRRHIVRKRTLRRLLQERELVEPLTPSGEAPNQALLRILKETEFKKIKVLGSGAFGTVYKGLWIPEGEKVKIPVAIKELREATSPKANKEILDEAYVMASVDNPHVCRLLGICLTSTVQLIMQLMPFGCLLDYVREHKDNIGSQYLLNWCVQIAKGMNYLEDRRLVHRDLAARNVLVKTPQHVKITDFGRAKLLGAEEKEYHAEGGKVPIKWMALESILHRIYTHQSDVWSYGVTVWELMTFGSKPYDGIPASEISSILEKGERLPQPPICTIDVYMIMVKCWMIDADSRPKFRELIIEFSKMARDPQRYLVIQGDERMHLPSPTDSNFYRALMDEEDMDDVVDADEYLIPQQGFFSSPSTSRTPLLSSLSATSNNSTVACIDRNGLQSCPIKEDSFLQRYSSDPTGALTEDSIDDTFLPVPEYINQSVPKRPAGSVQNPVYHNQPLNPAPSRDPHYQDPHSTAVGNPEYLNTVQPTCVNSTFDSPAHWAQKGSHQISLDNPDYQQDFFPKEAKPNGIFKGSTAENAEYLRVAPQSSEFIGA
# Experimental: H1975-clone #36(L858R/T790M). H1975 cell heterozygously (from ATCC) contains alleles of WT and L858R/T790M EGFR. H1975-clone #36(L858R/T790M) was generated by gene knockout, in which the EGFR targeting sgRNA was designed to specifically target WT EGFR but preserve the L858R/T790M copy. Followed by the gene knockout, the edited H1975 cells were seeded in 96 well plates at the concentration of 1 cell/well, cultured for about 2 weeks to allow single clones formation. The formed clones were screened by DNA sequencing for the desired edition. H1975-clone #36 was confirmed as a homozygous L858R/T790M EGFR clone.
# BaF3 WT(wild type), BaF3-LTC(L858R/T790M/C797S) and BaF3-DTC(Del19/T790M/C797S) cells are treated with compounds diluted in 0.2% DMSO cell culture medium and incubate for 16h, 37° C., 5% CO2, H1975-#36, H1975-#28, H1975-#23 and HCC827 cells are treated with compounds diluted in 0.2% DMSO cell culture medium on day 2, incubate for 16h, 37° C., 5% CO2.the final concentriation of compounds in all assay is start with 10 uM, 5-fold dilution, total 8 doses were included.
# After 16h treatment, add HTRF lysis buffer to each well; seal the plate and incubate 1 hour at room temperature on a plate shaker; Once the cells are lysed, 16 μL of cell lysate are transferred to a PE 384-well HTRF detection plate; 4 μL of pre-mixed HTRF antibodies are added to each well; Cover the plate with a plate sealer, spin 1000 rpm for 1 min, Incubate overnight at room temperature; Read on BMG PheraStar with HTRF protocol (337 nm-665 nm-620 nm).
# The inhibition (degradation) percentage of the compound was calculated by the following equation: Inhibition percentage of Compound=100-100×(Signal-low control)/(High control-low control), wherein signal=each test compound group
# High control=Cell group with added DMSO and without compound, indicating microplate readings without EGFR degradation;
# Dmax is the maximum percentage of inhibition (degradation).
# The IC50 (DC50) value of a compound can be obtained by fitting the following equation
# Y=Bottom+(TOP−Bottom)/(1+((IC50/X)^hillslope))
# Wherein, X and Y are known values, and IC50, Hillslope, Top and Bottom are the parameters obtained by fitting with software. Y is the inhibition percentage (calculated from the equation), X is the concentration of the compound; IC50 is the concentration of the compound when the 50% inhibition is reached. The smaller the IC50 value is, the stronger the inhibitory ability of the compound is. Vice versa, the higher the IC50 value is, the weaker the inhibitory ability of the compound is; Hillslope represents the slope of the fitted curve, generally around 1*; Bottom represents the minimum value of the curve obtained by data fitting, which is generally 0%±20%; Top represents the maximum value of the curve obtained by data fitting, which is generally 100%±20%. The experimental data were fitted by calculating and analyzing with Dotmatics data analysis software.
# EGFR (HCC827 cells) = biological target: T2, EGFR (HCC827 cells) (Homo sapiens, UniProt P00533, DEL746-750); assay: EGFR degradation HTRF assay, HCC827 cells; assay type: cell-based; settings: HCC827, 16h treatment; for Dmax: maximum percentage of degradation
# T2 construct: endogenous in cells; host or cells: HCC827
# T2 sequence (P00533 with tags, fused parts or gaps DEL746-750): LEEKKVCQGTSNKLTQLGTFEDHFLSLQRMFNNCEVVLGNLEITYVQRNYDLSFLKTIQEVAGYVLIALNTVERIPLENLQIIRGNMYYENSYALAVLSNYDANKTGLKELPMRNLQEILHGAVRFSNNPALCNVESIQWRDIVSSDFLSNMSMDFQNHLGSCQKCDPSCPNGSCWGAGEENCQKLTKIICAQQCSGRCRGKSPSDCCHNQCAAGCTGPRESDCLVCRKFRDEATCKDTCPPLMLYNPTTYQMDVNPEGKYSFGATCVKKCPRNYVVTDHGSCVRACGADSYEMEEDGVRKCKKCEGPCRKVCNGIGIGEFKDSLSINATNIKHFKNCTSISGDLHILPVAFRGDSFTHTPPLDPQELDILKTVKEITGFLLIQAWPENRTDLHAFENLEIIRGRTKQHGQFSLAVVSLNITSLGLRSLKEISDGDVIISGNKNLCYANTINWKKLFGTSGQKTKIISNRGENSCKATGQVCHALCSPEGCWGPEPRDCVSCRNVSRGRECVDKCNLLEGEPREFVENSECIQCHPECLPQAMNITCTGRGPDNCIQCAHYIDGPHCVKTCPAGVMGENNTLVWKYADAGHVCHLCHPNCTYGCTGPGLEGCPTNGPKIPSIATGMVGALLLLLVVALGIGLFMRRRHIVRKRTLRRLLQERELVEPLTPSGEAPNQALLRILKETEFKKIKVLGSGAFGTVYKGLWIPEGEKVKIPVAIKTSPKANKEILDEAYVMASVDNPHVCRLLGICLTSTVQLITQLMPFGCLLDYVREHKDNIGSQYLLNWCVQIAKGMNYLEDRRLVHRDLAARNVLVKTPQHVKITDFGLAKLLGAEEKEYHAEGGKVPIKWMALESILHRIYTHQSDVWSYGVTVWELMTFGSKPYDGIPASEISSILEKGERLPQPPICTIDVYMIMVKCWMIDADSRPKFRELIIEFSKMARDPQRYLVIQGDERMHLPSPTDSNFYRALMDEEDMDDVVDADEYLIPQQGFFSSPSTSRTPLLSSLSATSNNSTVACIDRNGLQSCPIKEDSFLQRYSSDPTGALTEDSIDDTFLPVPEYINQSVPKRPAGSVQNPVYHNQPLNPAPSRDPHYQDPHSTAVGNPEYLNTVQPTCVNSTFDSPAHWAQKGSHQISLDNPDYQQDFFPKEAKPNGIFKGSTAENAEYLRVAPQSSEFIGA
# Method in brief: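 Cells treated 16 h at 37 °C, 5% CO2 in medium with 0.2% DMSO; top final concentration 10 uM, 5-fold dilution, 8 doses. Lysates read by HTRF (665/620 nm); degradation % versus DMSO high control, DC50 from four-parameter fit, Dmax as maximal degradation.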
SMILES,DC50 [1] [nM],Dmax [1] [%],DC50 (EGFR (HCC827 cells)) [nM],Dmax (EGFR (HCC827 cells)) [%]
"COc1cc(N2CCC(N(C)CC3CCN(c4ccc(C5CCC(=O)NC5=O)cc4)CC3)CC2)c(C)cc1Nc1ncc(Br)c(Nc2ccc3nccnc3c2P(C)(C)=O)n1 (stereo not shown) [Example 77, 3-(4-(4-(((1-(4-((5-bromo-4-((5-(dimethylphosphoryl)quinoxalin-6-yl)amino)pyrimidin-2-yl)amino)-5-methoxy-2-methylphenyl)piperidin-4-yl)(methyl)amino)methyl)piperidin-1-yl)phenyl)piperidine-2,6-dione]",2.77,63,9.18,70.9
"CCc1cc(Nc2ncc(Br)c(Nc3ccc4nccnc4c3P(C)(C)=O)n2)c(OC)cc1N1CCC(N2CCN(CC3CCN(c4ccc(C5CCC(=O)NC5=O)cc4)CC3)CC2)CC1 (stereo not shown) [Example 22, 3-(4-(4-((4-(1-(4-((5-bromo-4-((5-(dimethylphosphoryl)quinoxalin-6-yl)amino)pyrimidin-2-yl)amino)-2-ethyl-5-methoxyphenyl)piperidin-4-yl)piperazin-1-yl)methyl)piperidin-1-yl)phenyl)piperidine-2,6-dione]",> 10000,41.7,6.26,67.5
"CCc1cc(Nc2ncc(Br)c(Nc3ccc4nccnc4c3P(C)(C)=O)n2)c(OC)cc1N1CCC(N2CCN(C(=O)CC3CCN(c4ccc(C5CCC(=O)NC5=O)cc4)CC3)CC2)CC1 (stereo not shown) [Example 24, 3-(4-(4-(2-(4-(1-(4-((5-bromo-4-((5-(dimethylphosphoryl)quinoxalin-6-yl)amino)pyrimidin-2-yl)amino)-2-ethyl-5-methoxyphenyl)piperidin-4-yl)piperazin-1-yl)-2-oxoethyl)piperidin-1-yl)phenyl)piperidine-2,6-dione]",5.72,65.5,6.59,74.7
"CCc1cc(Nc2ncc(Br)c(Nc3ccc4nccnc4c3P(C)(C)=O)n2)c(OC)cc1N1CCC(N2CCN(CCc3ccc(C4CCC(=O)NC4=O)c(OC)c3)CC2)CC1 (stereo not shown) [Example 2, 3-(4-(2-(4-(1-(4-((5-bromo-4-((5-(dimethylphosphoryl)quinoxalin-6-yl)amino)pyrimidin-2-yl)amino)-2-ethyl-5-methoxyphenyl)piperidin-4-yl)piperazin-1-yl)ethyl)-2-methoxyphenyl)piperidine-2,6-dione]",3720,53.6,18,78.5
"COc1cc(N2CCC(N(C)CC3CCN(c4ccc(N5CCC(=O)NC5=O)c(C)c4)CC3)CC2)c(C)cc1Nc1ncc(Br)c(Nc2ccc3nccnc3c2P(C)(C)=O)n1 [Example 83, 1-(4-(4-(((1-(4-((5-bromo-4-((5-(dimethylphosphoryl)quinoxalin-6-yl)amino)pyrimidin-2-yl)amino)-5-methoxy-2-methylphenyl)piperidin-4-yl)(methyl)amino)methyl)piperidin-1-yl)-2-methylphenyl)dihydropyrimidine-2,4(1H,3H)-dione]",> 10000,14.7,20.3,74.2
"CCc1cc(Nc2ncc(Br)c(Nc3ccc4nccnc4c3P(C)(C)=O)n2)c(OC)cc1N1CCC(N2CCN(CCOc3ccc(C4CCC(=O)NC4=O)cc3)CC2)CC1 (stereo not shown) [Example 17, 3-(4-(2-(4-(1-(4-((5-bromo-4-((5-(dimethylphosphoryl)quinoxalin-6-yl)amino)pyrimidin-2-yl)amino)-2-ethyl-5-methoxyphenyl)piperidin-4-yl)piperazin-1-yl)ethoxy)phenyl)piperidine-2,6-dione formate]",> 10000,6.77,25.4,73.3

# Further lines, results first:
DC50 [1] [nM],Dmax [1] [%],DC50 (EGFR (HCC827 cells)) [nM],Dmax (EGFR (HCC827 cells)) [%],SMILES
3.58,87,15.1,82.2,"COc1cc(N2CCC(N3CCN(CCc4ccc(C5CCC(=O)NC5=O)cc4)CC3)CC2)ccc1Nc1ncc(Cl)c(Nc2ccccc2NS(C)(=O)=O)n1 (stereo not shown) [Example 138, N-(2-((5-chloro-2-((4-(4-(4-(4-(2,6-dioxopiperidin-3-yl)phenethyl)piperazin-1-yl)piperidin-1-yl)-2-methoxyphenyl)amino)pyrimidin-4-yl)amino)phenyl)methanesulfonamide]"
9.29,85.4,11.1,87.2,"COc1cc(N2CCC(N3CCN(C(=O)C4CCN(CC5CCN(c6ccc7c(c6)C(=O)N(C6CCC(=O)NC6=O)C7=O)CC5)CC4)CC3)CC2)ccc1Nc1ncc(Cl)c(Nc2ccccc2N(C)S(C)(=O)=O)n1 (stereo not shown) [Example 129, N-(2-((5-chloro-2-((4-(4-(4-(1-((1-(2-(2,6-dioxopiperidin-3-yl)-1,3-dioxoisoindolin-5-yl)piperidin-4-yl)methyl)piperidine-4-carbonyl)piperazin-1-yl)piperidin-1-yl)-2-methoxyphenyl)amino)pyrimidin-4-yl)amino)phenyl)-N-methylmethanesulfonamide]"
6.63,62,17.9,75.4,"COc1cc(N2CCN(C3CN(C(=O)c4cnc(C(=O)Nc5ccc(C6CCC(=O)NC6=O)cc5)cn4)C3)CC2)ccc1Nc1ncc(Cl)c(Nc2ccccc2P(C)(C)=O)n1 (stereo not shown) [Example 116, 5-(3-(4-(4-((5-chloro-4-((2-(dimethylphosphoryl)phenyl)amino)pyrimidin-2-yl)amino)-3-methoxyphenyl)piperazin-1-yl)azetidine-1-carbonyl)-N-(4-(2,6-dioxopiperidin-3-yl)phenyl)pyrazine-2-carboxamide]"
11.9,64.7,35.9,71.4,"COc1cc(N2CCC(N3CCN(CCCOc4ccc(OC5CCC(=O)NC5=O)cc4)CC3)CC2)ccc1Nc1ncc(Cl)c(Nc2ccccc2N(C)S(C)(=O)=O)n1 (stereo not shown) [Example 127, N-(2-((5-chloro-2-((4-(4-(4-(3-(4-((2,6-dioxopiperidin-3 yl)oxy)phenoxy)propyl)piperazin-1-yl)piperidin-1-yl)-2-methoxyphenyl)amino)pyrimidin-4-yl)amino)phenyl)-N-methylmethanesulfonamide]"
24.7,82.4,22.7,76,"COc1cc(N2CCC(N3CCN(CCCC4CN(c5ccc6c(c5)C(=O)N(C5CCC(=O)NC5=O)C6=O)C4)CC3)CC2)ccc1Nc1ncc(Cl)c(Nc2ccccc2P(C)(C)=O)n1 (stereo not shown) [Example 118, 5-(3-(3-(4-(1-(4-((5-chloro-4-((2-(dimethylphosphoryl)phenyl)amino)pyrimidin-2-yl)amino)-3-methoxyphenyl)piperidin-4-yl)piperazin-1-yl)propyl)azetidin-1-yl)-2-(2,6-dioxopiperidin-3-yl)isoindoline-1,3-dione]"
641,74.7,103,83.4,"COc1cc(N2CCN(CC3CCN(c4ccc(N5CCC(=O)NC5=O)cc4)CC3)CC2)ccc1Nc1ncc(Cl)c(Nc2ccccc2P(C)(C)=O)n1 [Example 115, 1-(4-(4-((4-(4-((5-chloro-4-((2-(dimethylphosphoryl)phenyl)amino)pyrimidin-2-yl)amino)-3-methoxyphenyl)piperazin-1-yl)methyl)piperidin-1-yl)phenyl)dihydropyrimidine-2,4(1H,3H)-dione]"
5.24,73.3,8.56,88.9,"COc1cc(N2CCC(N3CCN(CCc4ccc(NC5CCC(=O)NC5=O)cc4)CC3)CC2)ccc1Nc1ncc(Cl)c(Nc2ccccc2NS(C)(=O)=O)n1 (stereo not shown) [Example 140, N-(2-((5-chloro-2-((4-(4-(4-(4-((2,6-dioxopiperidin-3-yl)amino)phenethyl)piperazin-1-yl)piperidin-1-yl)-2-methoxyphenyl)amino)pyrimidin-4-yl)amino)phenyl)methanesulfonamide]"
